These results are taken from BindingDB's records for doi:10.1016/0896-6273(94)90055-8 (Massachusetts General Hospital, 1994).

Melatonin receptor type 1A, sequence (P48040 whole entry): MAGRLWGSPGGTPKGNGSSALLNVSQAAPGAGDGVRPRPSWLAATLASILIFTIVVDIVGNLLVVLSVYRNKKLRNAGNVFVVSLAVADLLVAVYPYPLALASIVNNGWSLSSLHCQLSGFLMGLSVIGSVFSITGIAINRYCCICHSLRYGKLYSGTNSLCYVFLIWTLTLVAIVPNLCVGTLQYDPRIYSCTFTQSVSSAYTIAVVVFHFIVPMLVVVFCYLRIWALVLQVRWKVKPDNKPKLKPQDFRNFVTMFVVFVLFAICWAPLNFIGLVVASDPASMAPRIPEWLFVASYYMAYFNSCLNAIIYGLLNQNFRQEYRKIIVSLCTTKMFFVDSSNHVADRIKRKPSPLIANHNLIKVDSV

In the first experiment the target is T1, Melatonin receptor type 1B (Homo sapiens, UniProt P49286).
T1 sequence (P49286 whole entry): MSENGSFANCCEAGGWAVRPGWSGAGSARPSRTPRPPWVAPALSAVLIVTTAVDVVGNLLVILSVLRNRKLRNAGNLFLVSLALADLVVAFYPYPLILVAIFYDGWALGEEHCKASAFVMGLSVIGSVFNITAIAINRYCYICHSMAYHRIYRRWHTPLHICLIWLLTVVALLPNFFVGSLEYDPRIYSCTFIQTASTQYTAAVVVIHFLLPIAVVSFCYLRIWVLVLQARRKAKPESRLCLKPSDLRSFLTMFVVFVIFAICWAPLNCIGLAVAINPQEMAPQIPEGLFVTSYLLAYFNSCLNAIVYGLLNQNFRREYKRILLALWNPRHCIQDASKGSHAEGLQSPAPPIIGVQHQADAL
Take `CC(=O)n1cc(CCN)c2cc(O)ccc21` [NSC_260803]: the Ki was 170 nM. Take `COc1cc2c(CCNC(C)=O)c[nH]c2cc1O` [melatonin, 6-Hydroxy]: the inhibition constant Ki amounted to 2 nM. This Ki is about 85-fold lower than that of the molecule before.

A further experiment has as its target Melatonin receptor type 1A (Ovis aries, UniProt P48040).
Molecule `COc1ccc2[nH]c(I)c(CCNC(C)=O)c2c1` had a Ki of 0.03 nM. Regarding `COc1cc2c(CCNC(C)=O)c[nH]c2cc1Cl`, the Ki was 0.25 nM. Still for that read-out and setting: the value for `CC(=O)n1cc(CCN)c2cc(O)ccc21` [NSC_260803] was 140 nM; that for `NCCc1c[nH]c2ccc(O)cc12` [[3H]-5-HT] was above 10000 nM.
